# Data taken from US20240398823A1, “DUAL INHIBITOR OF HISTONE DEACETYLASE 6 AND HEAT SHOCK PROTEIN 90” (TAIPEI MEDICAL UNIVERSITY, priority 2021, published 2024).
# Tests used:
# HCT116 = test: MTT assay, survival of human colorectal cancer cells HCT116; type: cell-based; conditions: HCT-116, 48 h, mean ± SD, read-out: Human cell lines HCT116 IC50(μM ± SD)
# Description: (§1) The effects on cell viability of the HSP90/HDAC6 dual inhibitors as described in Synthesis Examples (such as Compounds 63, 64, and 66 to 76) were evaluated. Cells were seeded in 96-well plates (5000 cells/well). The next day, the serially diluted drugs were added into the wells and incubated at 37° C. for 48 h. Cell viability was measured by the MTT assay and is expressed as percentages of surviving drug-treated cells relative to untreated control cells. The IC50 was calculated by non-linear regression analysis.
# The inhibitory effect of the HSP90/HDAC6 dual inhibitors as described in Synthesis Examples on the survival rate of human colorectal cancer cells HCT116 is evaluated using MTT assay.
# HDAC3 = molecular target: T1, HDAC3 (Homo sapiens, UniProt O15379); test: HDAC enzymes inhibition assay (Reaction Biology), HDAC3; type: biochemical; conditions: 10-dose, 3-fold dilution from 10 μM, single experiment
# T1 construct: Reaction Biology Corporation (ran the assay as a service)
# [1] = test system: HSP90 client proteins (HSP70, Src, AKT, Rb, FAK); test: Western blot of HSP70 and HSP90 client proteins in HCT116; type: cell-based, human; conditions: HCT116, 0.25-1 μM, 48 hours
# Description: The ability of α-tubulin and histone H3 acetylation was measured.
# The effects of the HSP90/HDAC6 dual inhibitors as described in Synthesis Examples (such as Compounds 63, 64, and 66 to 76) on several factors were evaluated. Cells were lysed in RIPA buffer (Thermo Fisher Scientific, Wal-tham, MA, USA) and protease inhibitor (Roche, Basel, CH). Sample were further separated in 8% or 15% SDS-PAGE and transferred to nitrocellulose membrane and blocked with 5% skim milk (w/v in PBS). Nitrocellulose membranes were then incubated with primary antibodies against the following antigens: HSP90, Src, AKT, Rb, phosphorylated Rb (p-Rb), FAK, HSP70, α-tubulin acetylation, acetyl histone H3, phosphorylated STAT1 (p-STAT1), STAT1 (Cell signaling, Danvers, MA, USA), α-tubulin, Histone H3 (Genetex, Irvine, USA), IDO (Santa Cruz Biotechnology Dallas, TX, USA) and PD-L1 (Novus, Littleton, CO, USA) at 4° C. for overnight. The target proteins were visualized by using HRP-conjugated secondary antibodies (Jackson ImmunoResearch Laboratories, West Grove, PA, USA) and enhanced chemiluminescence kit (Thermo Fisher Scientific, Waltham, MA, U.S.A.).
# The ability of Compound 75 on the acetylation of α-tubulin and histone H3 was evaluated. HCT116 cells were administered with Compound 75 for 6 hours and analyzed by western blot. […] Next, whether Compound 75 inhibited HSP90 was evaluated. […]
# [2] = test system: human lung normal fibroblasts (IMR-90); test: MTT cytotoxicity to normal cells, IMR-90; type: cell-based; conditions: 48 hours, read-out: IC50, proliferation of IMR-90
# Description: FIGS. 3A and 3B show the effects of Compound 75 on cytotoxicity to normal cell lines. Cells were treated with DMSO or different concentrations of Compound 75 for 48 hours and cell viability was assessed by MTT assay. […] Data are expressed as mean t S.D. N values greater than 3. * P<0.05; ** P<0.01; *** P<0.001, compared with the control group.
# as §1
# The cytotoxicity to normal cells of Compound 75 was evaluated.
# [3] = test system: PD-L1 and IDO expression in tumor region (CT26); test: IHC of PD-L1 and IDO in CT26 tumor region; type: in vivo, mouse; conditions: CT26 tumors, day 25, IHC, 10, 25, 50 mg/kg
# Description: The tumors were removed and immunohistochemically stained at 25 days after intravenous tail injection in mice with colorectal cancer tumors. […] Bar, SD.
# (§2) The effects of the HSP90/HDAC6 dual inhibitors as described in Synthesis Examples (such as Compounds 63, 64, and 66 to 76) on several factors were evaluated. IHC-Paraffin: Tumor tissues were excised from the mice, fixed in 4% formaldehyde solution in PBS, and embedded in paraffin. Sections of 4-5 μm were cut and placed in an oven at 60° C. for overnight. After deparaffinizing and rehydrating the section, the antigen retrieval was performed with citrate buffer (10 mM citrate acid, pH 6) or Tris buffer (10 mM Tris, 1 mM EDTA, pH9) by autoclave for 30 min at 121 C. The sections were blocked with 10% goat serum and then incubated with primary antibodies against the following antigens: IDO (Santa Cruz Biotechnology Dallas, TX, USA), CD8 (Novus, Littleton, CO, USA) and granzyme B (Abcam, Cambridge, UK) at 4 C for overnight. IHC— Frozen for PD-L1: Tumor tissues were collected from the mice, embedded in OCT compound (Sakura Finetek, Torrance, CA, U.S.A.). […] Images of the tumor tissues sections were captured by Mirax Scan (CARL ZEISS, Germany) or TissueFAXS (Vienna, Austria) and analyzed by HistoQuest software (Vienna, Austria).
# Compound 75 was evaluated to determine its ability to reduce PD-L1 and IDO in the tumor microenvironment.
# [4] = test system: CD8 cells and granzyme B in mouse tumor area; test: IHC of CD8 cell infiltration and granzyme B in CT26 tumor area; type: in vivo; conditions: CT26 tumors, day 25, IHC, 10, 25, 50 mg/kg
# Description: The tumors were removed from mice on day 25 and embedded in paraffin and sectioned for immunohistochemical staining. […] Bar, SD.
# as §2, with “overnight.” for “overnight. IHC— Frozen for PD-L1: Tumor tissues were collected from the mice, embedded in OCT compound (Sakura Finetek, Torrance, CA, U.S.A.).”
# It is known that TME blocks the infiltration of functional immune cells into the tumor area. The effects of Compound 75 on CD8 cell infiltration in the tumor area were evaluated. […] Therefore, the ability of CD8+ T cells to secrete granzyme B was evaluated.
# serum TGF-β and IL-2 = test: Serum cytokines in CT26 tumor mice; type: in vivo, mouse; conditions: day 25, 10, 25, 50 mg/kg
# Description: FIGS. 11A and 11B show effects of Compound 75 on peripheral blood cytokines. BALB/c mice with CT26 tumors were treated with 10, 25 and 50 mg/kg of Compound 75 every two days and sacrificed on day 25. Data are expressed as mean t S.D. N values greater than 3. *P<0.05; ** P<0.01; *** P<0.001, compared to the control group.
# The reasons for the decrease of Treg in blood were further investigated.
# T1 sequence (O15379 whole entry): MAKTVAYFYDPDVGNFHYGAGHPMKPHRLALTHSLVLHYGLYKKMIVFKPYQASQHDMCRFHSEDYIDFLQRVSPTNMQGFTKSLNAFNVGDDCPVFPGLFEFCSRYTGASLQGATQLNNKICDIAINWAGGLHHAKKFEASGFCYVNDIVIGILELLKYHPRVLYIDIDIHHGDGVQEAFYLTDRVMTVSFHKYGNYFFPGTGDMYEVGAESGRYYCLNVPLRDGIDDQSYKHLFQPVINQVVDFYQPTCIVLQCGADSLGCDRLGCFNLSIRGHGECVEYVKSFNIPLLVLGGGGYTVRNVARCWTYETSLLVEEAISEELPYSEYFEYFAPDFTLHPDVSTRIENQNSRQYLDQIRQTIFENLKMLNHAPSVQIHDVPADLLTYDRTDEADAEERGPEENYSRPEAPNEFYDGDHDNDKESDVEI
# T1 sequence (Q9Y618 395-489 partner limits assumed): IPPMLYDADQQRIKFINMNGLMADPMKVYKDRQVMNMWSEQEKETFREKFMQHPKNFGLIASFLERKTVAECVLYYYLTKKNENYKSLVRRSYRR
compound,measurement,setting,value
"COc1ccc(N(Cc2ccc(C(=O)NO)cc2)C(=O)c2cc(C(C)C)c(O)cc2O)cc1 [Compound 75, 2,4-Dihydroxy-N-(4-hydroxycarbamoyl-benzyl)-5-isopropyl-N-(4-methoxy-phenyl)-benzamide]",IC50,HCT116,0.27 ± 0.01 µM
same,IC50,HDAC3,1370 nM
same,HSP70 expression,[1],an increase in HSP70 expression
same,"protein levels of client proteins (Src, AKT, Rb and FAK)",[1],a downregulation of the protein levels of client proteins
same,IC50,[2],> 20000 nM
same,PD-L1 and IDO expressions in the tumor region,[3],reduces PD-L1 and IDO expressions
same,CD8 immune cell infiltration in the mouse tumor area,[4],significantly increased
same,granzyme B secretion,[4],concentration-dependent increase
same,serum IL-2,serum TGF-β and IL-2,had no effect
same,serum TGF-β expression,serum TGF-β and IL-2,significantly reduced
